# Values quoted from earlier work in publication PMC5641599 (Molecular Metabolism, 2017).
# Like-named read-outs stand apart in the source and are kept apart here.
# How the values were obtained:
# Conditions in all cases: cited from earlier work
# MC4R variants [1] = system: MC4R variants
# MC4R variants [2] = system: MC4R variants; remark: listed apart in the source
# MC4R variants [3] = system: MC4R variants; remark: listed apart in the source
# MC4R variants [4] = system: MC4R variants; remark: listed apart in the source
# [5] = ref Rong R, Clin Endocrinol, 2006
# [6] = COS-7 cell line, ref Hughes DA, Hum Genet, 2009
# [7] = COS-7 cell line, ref Brumm H, Obesity, 2012
# [8] = ref Wang ZQ, Biochim Biophys Acta, 2011
# [9] = COS-7 cell line, ref Hinney A, J Clin Endocrinol Metab, 2006
# [10] = ref Fan ZC, J Cell Mol Med, 2009
# [11] = ref Srinivasan S, J Clin Invest, 2004
# [12] = ref Xiang Z, Biochemistry, 2010
# [13] = ref Lubrano-Berthelier C, J Clin Endocrinol Metab, 2006
# [14] = ref Xiang Z, Biochemistry, 2006
# [15] = MC4R D126Y, ref Wang ZQ, Biochim Biophys Acta, 2011
# [16] = MC4R D146N, ref Wang ZQ, Biochim Biophys Acta, 2011
# [17] = MC4R F201L, ref Wang ZQ, Biochim Biophys Acta, 2011
# [18] = MC4R G231V, ref Wang ZQ, Biochim Biophys Acta, 2011
# [19] = MC4R I170del, ref Wang ZQ, Biochim Biophys Acta, 2011
# [20] = MC4R I186V, ref Wang ZQ, Biochim Biophys Acta, 2011
# [21] = MC4R I195S, ref Wang ZQ, Biochim Biophys Acta, 2011
# [22] = MC4R P260Q, ref Wang ZQ, Biochim Biophys Acta, 2011
# [23] = MC4R Q307X, ref Wang ZQ, Biochim Biophys Acta, 2011
# [24] = MC4R T248A, ref Huang H, J Mol Endocrinol, 2012
substance,measurement,setting,value
C40R,Basal activity,"MC4R variants [1]; COS-7 cell line, ref Tarnow P, J Biol Chem, 2003",112 % of WT
same,Basal activity,MC4R variants [1]; [5],157 % of WT
same,Cell surface expression,MC4R variants [2]; [5],100 % of WT
C40Y,Basal activity,MC4R variants [1]; [6],108 % of WT
same,Cell surface expression,MC4R variants [2]; [6],49 % of WT
D37G,Basal activity,"MC4R variants [1]; ref Hughes DA, Hum Genet, 2009",83 % of WT
same,Cell surface expression,"MC4R variants [2]; ref Hughes DA, Hum Genet, 2009",100 % of WT
"E61X (MVNSTHRGMHTSLHLWNRSSYRLHSNASESLGKGYSDGGCYEQLFVSPEVFVTLGVISLL; nonsense E61X; UniProt P32245 1-60, looked up, fragment)",Cell surface expression,MC4R variants [2]; [7],5 % of WT
G32E,Basal activity,"MC4R variants [1]; limited data, ref Ahituv N, Am J Hum Genet, 2007",70 % of WT
G34A,Cell surface expression,"MC4R variants [2]; ref Moore BS, PLoS One, 2014",85 % of WT
MT-II,cAMP Emax - Ligand no.2 (% of WT),"MC4R variants [3]; MC4R A219V, ligand no.2 MT-II, ref Larsen LH, J Clin Endocrinol Metab, 2005",34.0 % of WT
same,cAMP Emax - Ligand no.2,"MC4R variants [3]; MC4R S36Y, ref Larsen LH, J Clin Endocrinol Metab, 2005",86.0 % of WT
Q307X,Basal activity,MC4R variants [1]; [8],20 % of WT
same,Cell surface expression,MC4R variants [2]; [7],40 % of WT
same,Cell surface expression,"MC4R variants [2]; ref Santoro N, BMC Med Genet, 2009",31 % of WT
same,Cell surface expression,MC4R variants [2]; [8],20 % of WT
R7C,Basal activity,MC4R variants [1]; [9],133 % of WT
same,Basal activity,MC4R variants [1]; [10],100 % of WT
same,Cell surface expression,MC4R variants [2]; [9],100 % of WT
same,Cell surface expression,MC4R variants [2]; [10],45 % of WT
R7H,Cell surface expression,MC4R variants [2]; [11],80 % of WT
same,Cell surface expression,MC4R variants [2]; [12],100 % of WT
R18C,Basal activity,MC4R variants [1]; [13],36 % of WT
same,Cell surface expression,MC4R variants [2]; [13],115 % of WT
same,Cell surface expression,MC4R variants [2]; [11],95 % of WT
same,Cell surface expression,MC4R variants [2]; [14],45 % of WT
R18H,Basal activity,MC4R variants [1]; [13],46 % of WT
same,Cell surface expression,MC4R variants [2]; [13],150 % of WT
same,Cell surface expression,MC4R variants [2]; [11],95 % of WT
same,Cell surface expression,MC4R variants [2]; [12],85 % of WT
R18L,Cell surface expression,MC4R variants [2]; [11],95 % of WT
same,Cell surface expression,MC4R variants [2]; [12],95 % of WT
S30F,Basal activity,"MC4R variants [1]; COS-7 cell line, ref Hinney A, J Clin Endocrinol Metab, 2003",140 % of WT
same,Cell surface expression,"MC4R variants [2]; S30F variant alone, ref Lubrano-Berthelier C, Hum Mol Genet, 2003",120 % of WT
S30F/G252S,Cell surface expression,"MC4R variants [2]; both variants on the same allele, ref Lubrano-Berthelier C, Hum Mol Genet, 2003",60 % of WT
same,Cell surface expression,"MC4R variants [2]; both variants on the same allele, ref Nijenhuis WA, J Biol Chem, 2003",69 % of WT
S36T,Basal activity,MC4R variants [1]; [6],83 % of WT
same,Cell surface expression,MC4R variants [2]; [6],107 % of WT
S36Y,Cell surface expression,MC4R variants [2]; [12],90 % of WT
"W16X (MVNSTHRGMHTSLHL; nonsense W16X; UniProt P32245 1-15, looked up, fragment)",Cell surface expression,MC4R variants [2]; [7],5 % of WT
same,Cell surface expression,"MC4R variants [2]; HEK293 cell line, ref Bolze F, Pharmacogenomics J, 2013",0 % of WT
Y35C,Basal activity,MC4R variants [1]; [5],172 % of WT
same,Cell surface expression,MC4R variants [2]; [5],100 % of WT
"Y35X (MVNSTHRGMHTSLHLWNRSSYRLHSNASESLGKG; nonsense Y35X; UniProt P32245 1-34, looked up, fragment)",Cell surface expression,MC4R variants [2]; [7],0 % of WT
same,Cell surface expression,MC4R variants [2]; [14],5 % of WT
Y287X,Cell surface expression,MC4R variants [2]; [14],30 % of WT
same,Cell surface expression,"MC4R variants [2]; ref Yeo GS, Hum Mol Genet, 2003",0 % of WT
β-MSH,cAMP Emax - Ligand no.2,"MC4R variants [3]; MC4R C40Y, COS-7 cell line, ref Hughes DA, Hum Genet, 2009",98.0 % of WT
same,cAMP Emax - Ligand no.2 (% of WT),"MC4R variants [3]; MC4R C271R, COS-7 cell line, ref Tarnow P, J Biol Chem, 2003",22.5 % of WT
same,cAMP Emax - Ligand no.2,"MC4R variants [3]; MC4R D37G, ref Hughes DA, Hum Genet, 2009",75.0 % of WT
same,cAMP Emax - Ligand no.2 (% of WT),MC4R variants [3]; [15],0.0 % of WT
same,cAMP Emax - Ligand no.2 (% of WT),MC4R variants [3]; [16],96.1 % of WT
same,cAMP Emax - Ligand no.2 (% of WT),MC4R variants [3]; [17],100.0 % of WT
same,cAMP Emax - Ligand no.2 (% of WT),"MC4R variants [3]; MC4R F202L, COS-7 cell line, ref Hughes DA, Hum Genet, 2009",79.0 % of WT
same,cAMP Emax - Ligand no.2,"MC4R variants [3]; MC4R F280AfsX12, ref Xiang Z, Biochemistry, 2006",0.0 % of WT
same,cAMP Emax - Ligand no.2 (% of WT),"MC4R variants [3]; MC4R G181D, ref Xiang Z, Biochemistry, 2010",0.0 % of WT
same,cAMP Emax - Ligand no.2 (% of WT),MC4R variants [3]; [18],104.9 % of WT
same,cAMP Emax - Ligand no.2 (% of WT),"MC4R variants [3]; MC4R H158R, COS-7 cell line, ref Hinney A, J Clin Endocrinol Metab, 2006",122.0 % of WT
same,cAMP Emax - Ligand no.2 (% of WT),"MC4R variants [3]; MC4R I125K, ref Xiang Z, Biochemistry, 2006",0.0 % of WT
same,cAMP Emax - Ligand no.2 (% of WT),"MC4R variants [3]; MC4R I170V, COS-7 cell line, ref Hughes DA, Hum Genet, 2009",97.0 % of WT
same,cAMP Emax - Ligand no.2,MC4R variants [3]; [19],0.0 % of WT
same,cAMP Emax - Ligand no.2 (% of WT),MC4R variants [3]; [20],65.8 % of WT
same,cAMP Emax - Ligand no.2 (% of WT),MC4R variants [3]; [21],94.1 % of WT
same,cAMP Emax - Ligand no.2,"MC4R variants [3]; MC4R I251WfsX34, ref Xiang Z, Biochemistry, 2010",0.0 % of WT
same,cAMP Emax - Ligand no.2,"MC4R variants [3]; MC4R L211MfsX6, ref Xiang Z, Biochemistry, 2006",0.0 % of WT
same,cAMP Emax - Ligand no.2 (% of WT),"MC4R variants [3]; MC4R M200V, COS-7 cell line, ref Hinney A, J Clin Endocrinol Metab, 2006",91.0 % of WT
same,cAMP Emax - Ligand no.2 (% of WT),MC4R variants [3]; [22],20.0 % of WT
same,cAMP Emax - Ligand no.2 (% of WT),"MC4R variants [3]; MC4R Q156R, COS-7 cell line, ref Hinney A, J Clin Endocrinol Metab, 2006",92.0 % of WT
same,cAMP Emax - Ligand no.2,"MC4R variants [3]; MC4R Q307X, ref Santoro N, BMC Med Genet, 2009",0.0 % of WT
same,cAMP Emax - Ligand no.2,MC4R variants [3]; [23],0.0 % of WT
same,cAMP Emax - Ligand no.2,"MC4R variants [3]; MC4R R7C, COS-7 cell line, ref Hinney A, J Clin Endocrinol Metab, 2006",83.0 % of WT
same,cAMP Emax - Ligand no.2 (% of WT),"MC4R variants [3]; MC4R R236H, COS-7 cell line, ref Hinney A, J Clin Endocrinol Metab, 2006",96.0 % of WT
same,cAMP Emax - Ligand no.2,"MC4R variants [3]; MC4R S36T, COS-7 cell line, ref Hughes DA, Hum Genet, 2009",82.0 % of WT
same,cAMP Emax - Ligand no.2 (% of WT),"MC4R variants [3]; MC4R S136F, COS-7 cell line, ref Tarnow P, Obes Facts, 2008",23.0 % of WT
same,cAMP Emax - Ligand no.2 (% of WT),"MC4R variants [3]; MC4R S191T, COS-7 cell line, ref Hughes DA, Hum Genet, 2009",97.0 % of WT
same,cAMP Emax - Ligand no.2 (% of WT),"MC4R variants [3]; MC4R T162R, COS-7 cell line, ref Ochoa MC, Clin Endocrinol, 2007",80.0 % of WT
same,cAMP Emax - Ligand no.2 (% of WT),MC4R variants [3]; [24],79.5 % of WT
same,cAMP Emax - Ligand no.2 (% of WT),"MC4R variants [3]; MC4R V166I, COS-7 cell line, ref Hinney A, J Clin Endocrinol Metab, 2006",105.0 % of WT
same,cAMP Emax - Ligand no.2 (% of WT),"MC4R variants [3]; MC4R V166I, COS-7 cell line, ref Hughes DA, Hum Genet, 2009",105.0 % of WT
same,cAMP Emax - Ligand no.2 (% of WT),"MC4R variants [3]; MC4R W174C, ref Xiang Z, Biochemistry, 2010",0.0 % of WT
same,cAMP Emax - Ligand no.2,"MC4R variants [3]; MC4R Y35X, ref Xiang Z, Biochemistry, 2006",0.0 % of WT
same,Binding Bmax - Ligand no.2 (% of WT),MC4R variants [4]; [15],0.0 % of WT
same,Binding Bmax - Ligand no.2 (% of WT),MC4R variants [4]; [16],23.9 % of WT
same,Binding Bmax - Ligand no.2 (% of WT),MC4R variants [4]; [17],116.0 % of WT
same,Binding Bmax (% of WT),"MC4R variants [4]; MC4R F280L, ref Wang ZQ, Biochim Biophys Acta, 2011",57.4 % of WT
same,Binding Bmax - Ligand no.2 (% of WT),MC4R variants [4]; [18],123.2 % of WT
same,Binding Bmax (% of WT),"MC4R variants [4]; MC4R H76R, ref Wang ZQ, Biochim Biophys Acta, 2011",81.7 % of WT
same,Binding Bmax (% of WT),"MC4R variants [4]; MC4R I69R, ref Wang ZQ, Biochim Biophys Acta, 2011",0.0 % of WT
same,Binding Bmax - Ligand no.2,MC4R variants [4]; [19],0.0 % of WT
same,Binding Bmax - Ligand no.2 (% of WT),MC4R variants [4]; [20],150.5 % of WT
same,Binding Bmax - Ligand no.2 (% of WT),MC4R variants [4]; [21],71.2 % of WT
same,Binding Bmax (% of WT),"MC4R variants [4]; MC4R I289L, ref Wang ZQ, Biochim Biophys Acta, 2011",127.4 % of WT
same,Binding Bmax (% of WT),"MC4R variants [4]; MC4R M79I, ref Wang ZQ, Biochim Biophys Acta, 2011",98.2 % of WT
same,Binding Bmax - Ligand no.2 (% of WT),MC4R variants [4]; [22],0.0 % of WT
same,Binding Bmax - Ligand no.2,MC4R variants [4]; [23],0.0 % of WT
same,Binding Bmax (% of WT),"MC4R variants [4]; MC4R R305S, ref Wang ZQ, Biochim Biophys Acta, 2011",128.1 % of WT
same,Binding Bmax (% of WT),"MC4R variants [4]; MC4R S94N, ref Wang ZQ, Biochim Biophys Acta, 2011",41.0 % of WT
same,Binding Bmax - Ligand no.2 (% of WT),MC4R variants [4]; [24],125.0 % of WT
same,Binding Bmax (% of WT),"MC4R variants [4]; MC4R Y332C, ref Wang ZQ, Biochim Biophys Acta, 2011",129.6 % of WT
same,Binding Bmax (% of WT),"MC4R variants [4]; MC4R Y332H, ref Wang ZQ, Biochim Biophys Acta, 2011",150.0 % of WT
